Data on seven compounds can be found in patent US20030023104A1, “Therapeutic compound - fatty acid conjugates” (COMMONWEALTH SCIENTIFIC AND INDUSTRIAL RESEARCH ORGANISATION, priority 1995, published 2003).

The subject of data set [1] is UVB induced immunosuppression. Briefly: Contact Hypersensitivity Assay (oxazolone, net ear swelling). The data set is classed as in vivo, mice. As to conditions: total 3 MED UVB. An excerpt:
The assay used the method described in “Current Protocols in Immunology” (Vol 1, Section 4.2 Eds Coligan et al. (1991) NIH). The sensitiser was Oxazalone. Briefly this method was as follows:
UVB Radiation. Mice were irradiated with a single FL40SE UVB fluorescent tube (Oliphant) in a reflective batten, providing […] UVB radiation measured at target distance using an International Light IL1700 radiometer with a UVB detector sensitive between 250-315 nm. The mice received 0.1179 J/cm^2 UVB radiation, constituting 1 minimal erythemal dose (MED) as previously ascertained, on each of 3 consecutive days, being exposed unrestrained with the wire cage tops removed.
Induction of Systemic Contact Hypersensitivity. Test mice were exposed on the dorsum to 1 MED UVB radiation (or no UVB radiation) at the same hour on days 1, 2 and 3. On days 8 and 9, the mice (irradiated and non-irradiated) were sensitized by topical application to the abdominal skin of 0.1 ml of 3% (w/v) oxazolone (Sigma Chemical Co., St Louis, Mo.) freshly prepared in ethanol. On day 15, the pre-challenge ear thickness was measured using the spring micrometer, and the mice were then challenged by the application of 5 ul freshly prepared 3% oxazolone/ethanol solution to both surfaces of each pinna. Ear thickness was again measured repeatedly between 16-24 hours, and the maximum ear thickness was recorded. The net ear swelling was calculated as the difference between the average pre-challenge and the average post-challenge ear thickness for each treatment group. Statistical significance of the differences in net ear swelling between treatment groups was assessed with Student's t test.
The mice were painted with vehicle, 0.5 mg/mouse HC, 0.5 mg/mouse HC-Suc-GTP2. 1 mg/mouse 17-b HC-Suc-GTP3 or 17-b HC within 10 minutes post UVB exposure. A total of 3 MED of unshielded UVB was used. (Table 3)

Data set [2] concerns UVB induced oedema. The data set is described as follows: UVB erythema assay (net skin fold thickness). As to conditions: for activity equivalent to % of the hydrocortisone activity in protecting against UVB induced oedema: 0.5 mg/mouse, applied at Day 0, post UVB exposure. The data set is classed as in vivo, Skh-1 hairless albino female mice.
Data set [3] has as its system JURKAT cells (acute T cell human leukemia). As to conditions: for IC50 / activity (cytotoxicity) when delivered to cultures in ethanol: JURKAT; for IC50: drugs coated onto plates (Table 9); for activity (cytotoxicity) when delivered to cultures in ethanol: ethanol delivery. Here is the method:
The cytotoxicity of chlorambucil and chlorambucil fatty acid conjugates (CGTP1. P2 and P3) were tested in vitro with JURKAT cells (acute T cell human leukemia). Cells were incubated with drug and viability was determined by a colourmetric proliferation test. Cytotoxicity towards other cells lines was also tested (PC3 human prostate cancer cells, B16 mouse melanoma cells and human peripheral blood mononuclear cells).
JURKAT cells were seeded into 96-well plates at a density of 1.6×10^4 cells/200 μl complete RPMI ± drug and cultured for 64 h. A 1:3 split of confluent PC3 cells in a 75 cm^2 flask were seeded into a 96-well plate and cultured for 48 h in complete RPMI. Media was removed and complete RPMI ± drug was added to wells. Cells were further cultured for 72 h.
i) Ethanol. Drugs were dissolved in ethanol and added to culture media. The final concentration of ethanol in media was no greater than 1% (v/v). This delivery was used for experiments with JURKAT, PBMC, PC3 and B16 cell types.
ii) Coating of plates. Drugs were dissolved in ethanol and aliquots (up to 40 μl) were added to 90% (v/v) isopropanol. Solution (50 μl) was then added to wells of a 96-well plate and the solvent evaporated by heating at 37° C. Media ± cells was then added. This delivery was used for some experiments with JURKAT cells.
Viability was determined using the MTS assay (CellTiter 96TM AQueous Non-Radioactive Cell Proliferation Assay) from Promega. Reagent (40 μl) was added to each well and absorbance values at 490 nm were determined 1 to 4 h later. The effect of drug on cell viability was compared to cultures set up containing no drug (100% viability). Wells containing no cells were used to control for background absorbance (0% viability). Each concentration was tested in at least 3 wells. Concentrations necessary to cause a 50% inhibition of cellular growth of control cells (IC50) were calculated by linear regression.

Data set [4] concerns B16 melanoma cells. The data set is described as follows: Tumour Cytotoxicity Model (B16 melanoma in C57 mice). The data set is classed as in vivo, C57 black mice. Also noted: Mean (standard error) of B16 tumour volume adjusted for the variation in initial volume: scale not given here. As to conditions: for Mean (standard error) of B16 tumour volume adjusted for the variation in initial volume: statistically modified tumour volume; for B16 Tumour Volume: individual mice. Here is the method: Groups of C57 black mice were given an initiation dose of 2×10^5 B16 melanoma cells as an intradermal injection. The cells were suspended in MEM without serum. The abdomen was clipped and 100 μl of cells + MEM was injected. […] The tumours were measured with a micrometer and photographed just prior to the injection of drug (day 8-10).
The cytotoxic drugs and their fatty acid conjugates were dissolved or suspended in 4:1 soy bean oil:ethyl oleate. A 10 mg/ml or a 20 mg/ml solution of each parent drug or the fatty acid conjugate made to the same molar concentration as the parent drug was then injected into the same region as the tumour at a dose of 0.5 mg or 1 mg. The tumours were then photographed, measured and re-injected every two to three days.

Data set [5] relates to JM (semi mature human T-cell from lymphoblastoid leukemia). Briefly: Cell growth (cytotoxicity) in JM cells. The data set is classed as cell-based. Conditions: 5 days, read-out: IC50 (concentration of drug which reduces cell growth by 50%). Here is the method:
(§1) The anti-HIV activities of AZT-Suc-GTP1 and AZT-Suc-GTP2 were also tested. Infected cells were incubated for 5 days with compound. Compounds were dissolved in DMSO and 5-fold dilutions were used. The following parameters were measured: syncytia formation, virus antigen gp120 production, cell survival. Cytotoxicity is also measured in uninfected cells.
(§2) JM (semi mature human T-cell from lymphoblastoid leukemia) infected with HIV-I U4550
IC50=concentration of drug which reduces cell growth by 50%.

Data set [6] concerns HIV-I U4550. Briefly: Anti HIV activity, Ag gp120 production in infected JM cells. It is filed as cell-based. As to conditions: JM cells infected with HIV-I U4550, 5 days; read-out: EC50 (concentration which reduces Ag gp120 by 50% in infected cell cultures). Here is the method:
as §1, §2
EC50=concentration which reduces Ag gp120by 50% in infected cell cultures.

[7] abbreviates: 1% (1 mg/mouse) painted within 10 minutes post UVB exposure.
Where [8] appears, read: 0.5 mg/mouse topical, applied Day 0 after UV exposure, 2MED UVB.
Where [9] appears, read: 0.5 mg/mouse topical, applied Day −3 (3 days prior to UV exposure), 2MED UVB.

Each structure is given as a SMILES string. “And” between values parts separate entries of the source, which are not always exact repeats. Equal entries are not always repeated. A value given as a limit tells only on which side of the number the result lay.

For `CCCCCCCCCCCCCCCC(=O)OCC(COC(=O)CCCCCCCCCCCCCCC)(COC(=O)CCCCCCCCCCCCCCC)NC(=O)CNC(=O)CCC(=O)OCC(=O)[C@@]1(O)CC[C@H]2[C@@H]3CCC4=CC(=O)CC[C@]4(C)[C@H]3[C@@H](O)C[C@@]21C` [17-b HC-Suc-GTP3, 17-b Hydrocortisone-21-Suc-Gly-Tris-Tripalmitate], in data set [1] (setting [7]), the “Net Ear Swelling” value is 32.8 10^−2 mm. Further, the entries for the “Mean Net Skin Fold Thickness” value in data set [2] (setting [8]) and in data set [2] (setting [9]) were 42.7 ± 13.7 10^−2 mm and 90.7 ± 14.8 10^−2 mm, respectively. In addition, the “activity equivalent to % of the hydrocortisone activity in protecting against UVB induced oedema” value in data set [2] is “approximately 50%”.
As to `CCCC(=O)O[C@]1(C(=O)CO)CC[C@H]2[C@@H]3CCC4=CC(=O)CC[C@]4(C)[C@H]3[C@@H](O)C[C@@]21C` [17b-Hydrocortisone, 17-Butyrate-Hydrocortisone, reference compound], the “Net Ear Swelling” value in data set [1] (setting [7]) was 38.6 10^−2 mm.
On to `CCCCCCCCCCCCCCCC(=O)OCC(CO)(COC(=O)CCCCCCCCCCCCCCC)NC(=O)CNC(=O)CCCc1ccc(N(CCCl)CCCl)cc1` [CGTP2], for which the IC50 in data set [3] was found to be 17.7 µM. Further, the “activity (cytotoxicity) when delivered to cultures in ethanol” value in data set [3] was “not observed”. Besides, the “difference in tumour volume from the Vehicle group (95% level)” value in data set [4] (0.5 mg and 1.0 mg groups) is listed as “significant difference”. For the same compound, the “Mean (standard error) of B16 tumour volume adjusted for the variation in initial volume” value in data set [4] (13/11/95, 0.5 mg) is recorded as 2.39 (0.523); in data set [4] (13/11/95, 1.0 mg), 2.58 (0.523); in data set [4] (15/11/95, 0.5 mg), 4.07 (0.881); in data set [4] (15/11/95, 1.0 mg), 3.89 (0.819); in data set [4] (16/11/95, 0.5 mg) it was 4.84 (1.06); in data set [4] (16/11/95, 1.0 mg), 4.23 (0.98). The “Mean (standard error) of B16 tumour volume adjusted for the variation in initial volume” value in data set [4] (17/11/95, 0.5 mg) is reported as 4.90 (1.28); in data set [4] (17/11/95, 1.0 mg) it was 4.84 (1.19). Further, the “B16 Tumour Volume” value in data set [4] (Day 1, drug dose 0.5 mg injected at tumour region) is 0.5 mm^2 and 1.0 mm^2 and 2.7 mm^2; in data set [4] (Day 1, drug dose 0.5 mg injected at tumour region, listed as CCTP2), 14.1 mm^2; in data set [4] (Day 1, drug dose 1.0 mg), 8.2 mm^2 and 38.3 mm^2; in data set [4] (Day 1, drug dose 1.0 mg, listed as CCTP2) it was 5 mm^2; in data set [4] (Day 3, drug dose 0.5 mg) it was 0.3 mm^2 and 1 mm^2 and 0 mm^2; in data set [4] (Day 3, drug dose 0.5 mg, listed as CCTP2), 27.4 mm^2. The “B16 Tumour Volume” value was 32.7 mm^2 and 73.5 mm^2 in data set [4] (Day 3, drug dose 1.0 mg); 0 mm^2 and 7.7 mm^2 in data set [4] (Day 3, drug dose 1.0 mg, listed as CCTP2); 11.8 mm^2 and 19.1 mm^2 and 0.0 mm^2 in data set [4] (Day 5, drug dose 0.5 mg); 82.8 mm^2 in data set [4] (Day 5, drug dose 0.5 mg, listed as CCTP2); 111.9 mm^2 and 174.1 mm^2 in data set [4] (Day 5, drug dose 1.0 mg); 0 mm^2 and 38.3 mm^2 in data set [4] (Day 5, drug dose 1.0 mg, listed as CCTP2). The “B16 Tumour Volume” value in data set [4] (Day 6, drug dose 0.5 mg) is 19.8 mm^2 and 13.6 mm^2 and 0 mm^2; in data set [4] (Day 6, drug dose 0.5 mg, listed as CCTP2), 167.4 mm^2; in data set [4] (Day 6, drug dose 1.0 mg), 108.4 mm^2 and 240.3 mm^2; in data set [4] (Day 6, drug dose 1.0 mg, listed as CCTP2), 0 mm^2 and 61.6 mm^2; in data set [4] (Day 7, drug dose 0.5 mg), 21.8 mm^2 and 35.1 mm^2 and 0 mm^2; in data set [4] (Day 7, drug dose 0.5 mg, listed as CCTP2) it was 152.8 mm^2. For the same compound, the “B16 Tumour Volume” value in data set [4] (Day 7, drug dose 1.0 mg) is 254.1 mm^2 and 215.0 mm^2; in data set [4] (Day 7, drug dose 1.0 mg, listed as CCTP2), 0 mm^2 and 92.6 mm^2.
For `CCCCCCCCCCCCCCCC(=O)OCC(COC(=O)CCCCCCCCCCCCCCC)(COC(=O)CCCCCCCCCCCCCCC)NC(=O)CNC(=O)CCCc1ccc(N(CCCl)CCCl)cc1` [CGTP3, Chlorambucil-Gly-Tris-Tripalmitate], in data set [3], the IC50 was 30 µM and the “activity (cytotoxicity) when delivered to cultures in ethanol” value was “not observed”.
Turning to `CCCCCCCCCCCCCCCC(=O)OCC(CO)(CO)NC(=O)CN` [GTP1, Glycine-Tris-Monopalmitate, reference compound], in data set [3], the “cytotoxicity to JURKAT cells (in words)” value is “no activity”.
In the case of `CCCCCCCCCCCCCCCC(=O)OCC(CO)(COC(=O)CCCCCCCCCCCCCCC)NC(=O)CNC(=O)CCC(=O)OCC(=O)C1(O)CCC2C3CCC4=CC(=O)CCC4(C)C3C(O)CC21C` (stereo not drawn) [HC-Suc-GTP2, Hydrocortisone-Suc-Gly-Tris-Dipalmitate], in data set [1] (0.5% (0.5 mg/mouse) painted within 10 minutes post UVB exposure), the “Net Ear Swelling” value is on record as 29.8 10^−2 mm. Besides, the “Mean Net Skin Fold Thickness” value is on record as 104.2 ± 14.7 10^−2 mm in data set [2] (0.5 mg/mouse topical in ethanol, applied Day −5 (5 days prior to UV exposure), 2MED UVB, measured 24 h); 60.6 ± 8.6 10^−2 mm in data set [2] (setting [8]); 94.3 ± 10.3 10^−2 mm in data set [2] (setting [9]); 57.5 ± 10.9 in data set [2] (1 mg/mouse (1% w/v) topical, applied Day 0 after UV exposure); 60.8 ± 8.8 in data set [2] (1 mg/mouse (1% w/v) topical, applied Day −3). The “activity equivalent to % of the hydrocortisone activity in protecting against UVB induced oedema” value in data set [2] was “approximately 50%”.
For `O=c1[nH]cnc2c1ncn2[C@H]1CC[C@@H](CO)O1` [ddI, reference compound], the IC50 in data set [5] is greater than 100 µM. For the same compound, in data set [6], the EC50 turned out to be 1 µM.
